From ChEMBL document CHEMBL4680343, “Nosiheptide analogues as potential antibacterial agents via dehydroalanine region modifications: Semi-synthesis, antimicrobial activity and molecular docking study” (2021)

Experiments:
Assay type in all cases: functional
Conditions in all cases: time 16-20 hrs
Staphylococcus aureus [1] = assay: Antimicrobial activity against Staphylococcus aureus ATCC 25923 assessed as inhibition of microbial growth incubated for 16 to 20 hrs under ambient air condition by broth microdilution assay
Staphylococcus aureus [2] = assay: Antimicrobial activity against methicillin-resistant Staphylococcus aureus assessed as inhibition of microbial growth incubated for 16 to 20 hrs under ambient air condition by broth microdilution assay
Enterococcus faecium = assay: Antimicrobial activity against vancomycin-resistant Enterococcus faecium assessed as inhibition of microbial growth incubated for 16 to 20 hrs under ambient air condition by broth microdilution assay

Row | Compound | MIC (Staphylococcus aureus [1]) [µg/mL] | MIC (Staphylococcus aureus [2]) [µg/mL] | MIC (Enterococcus faecium) [µg/mL]
1 | C/C=C1\NC(=O)[C@H]([C@@H](C)O)NC(=O)c2csc(n2)-c2cc(O)c(-c3nc(C(=O)NC(CNc4cccc(I)c4)C(N)=O)cs3)nc2-c2csc(n2)[C@@H]2CSC(=O)c3[nH]c4cccc(c4c3C)COC(=O)[C@H](O)C[C@H](NC(=O)c3csc1n3)c1nc(cs1)C(=O)N2 (stereo partly drawn) | 0.031 | < 0.0039 | 0.0078
2 | C/C=C1\NC(=O)[C@H]([C@@H](C)O)NC(=O)c2csc(n2)-c2cc(O)c(-c3nc(C(=O)NC(CNc4ccccc4C)C(N)=O)cs3)nc2-c2csc(n2)[C@@H]2CSC(=O)c3[nH]c4cccc(c4c3C)COC(=O)[C@H](O)C[C@H](NC(=O)c3csc1n3)c1nc(cs1)C(=O)N2 (stereo partly drawn) | 0.015 | < 0.0039 | 0.015
3 | C/C=C1\NC(=O)[C@H]([C@@H](C)O)NC(=O)c2csc(n2)-c2cc(O)c(-c3nc(C(=O)NC(CNc4ccc(F)cc4)C(N)=O)cs3)nc2-c2csc(n2)[C@@H]2CSC(=O)c3[nH]c4cccc(c4c3C)COC(=O)[C@H](O)C[C@H](NC(=O)c3csc1n3)c1nc(cs1)C(=O)N2 (stereo partly drawn) | 0.031 | 0.015 | 0.031
4 | C/C=C1\NC(=O)[C@H]([C@@H](C)O)NC(=O)c2csc(n2)-c2cc(O)c(-c3nc(C(=O)NC(CNc4ccc(C)cc4)C(N)=O)cs3)nc2-c2csc(n2)[C@@H]2CSC(=O)c3[nH]c4cccc(c4c3C)COC(=O)[C@H](O)C[C@H](NC(=O)c3csc1n3)c1nc(cs1)C(=O)N2 (stereo partly drawn) | 0.062 | 0.0078 | 0.031
5 | C/C=C1\NC(=O)[C@H]([C@@H](C)O)NC(=O)c2csc(n2)-c2cc(O)c(-c3nc(C(=O)NC(CNc4cccc(C(F)(F)F)c4)C(N)=O)cs3)nc2-c2csc(n2)[C@@H]2CSC(=O)c3[nH]c4cccc(c4c3C)COC(=O)[C@H](O)C[C@H](NC(=O)c3csc1n3)c1nc(cs1)C(=O)N2 (stereo partly drawn) | 0.062 | 0.0078 | 0.031
6 | C/C=C1\NC(=O)[C@H]([C@@H](C)O)NC(=O)c2csc(n2)-c2cc(O)c(-c3nc(C(=O)NC(CNc4ccc(Br)cc4)C(N)=O)cs3)nc2-c2csc(n2)[C@@H]2CSC(=O)c3[nH]c4cccc(c4c3C)COC(=O)[C@H](O)C[C@H](NC(=O)c3csc1n3)c1nc(cs1)C(=O)N2 (stereo partly drawn) | 0.062 | 0.015 | 0.031
7 | C/C=C1\NC(=O)[C@H]([C@@H](C)O)NC(=O)c2csc(n2)-c2cc(O)c(-c3nc(C(=O)NC(CNc4ccccc4C(F)(F)F)C(N)=O)cs3)nc2-c2csc(n2)[C@@H]2CSC(=O)c3[nH]c4cccc(c4c3C)COC(=O)[C@H](O)C[C@H](NC(=O)c3csc1n3)c1nc(cs1)C(=O)N2 (stereo partly drawn) | 0.031 | < 0.0039 | 0.015
8 | C/C=C1\NC(=O)[C@H]([C@@H](C)O)NC(=O)c2csc(n2)-c2cc(O)c(-c3nc(C(=O)NC(CNc4cccc(F)c4)C(N)=O)cs3)nc2-c2csc(n2)[C@@H]2CSC(=O)c3[nH]c4cccc(c4c3C)COC(=O)[C@H](O)C[C@H](NC(=O)c3csc1n3)c1nc(cs1)C(=O)N2 (stereo partly drawn) | 0.031 | 0.015 | 0.031
9 | C/C=C1\NC(=O)[C@H]([C@@H](C)O)NC(=O)c2csc(n2)-c2cc(O)c(-c3nc(C(=O)NC(CNc4ccccc4F)C(N)=O)cs3)nc2-c2csc(n2)[C@@H]2CSC(=O)c3[nH]c4cccc(c4c3C)COC(=O)[C@H](O)C[C@H](NC(=O)c3csc1n3)c1nc(cs1)C(=O)N2 (stereo partly drawn) | 0.062 | < 0.0039 | 0.015
10 | C/C=C1\NC(=O)[C@H]([C@@H](C)O)NC(=O)c2csc(n2)-c2cc(O)c(-c3nc(C(=O)NC(CNc4ccc(C(F)(F)F)cc4)C(N)=O)cs3)nc2-c2csc(n2)[C@@H]2CSC(=O)c3[nH]c4cccc(c4c3C)COC(=O)[C@H](O)C[C@H](NC(=O)c3csc1n3)c1nc(cs1)C(=O)N2 (stereo partly drawn) | 0.031 | < 0.0039 | 0.015
11 | C/C=C1\NC(=O)[C@H]([C@@H](C)O)NC(=O)c2csc(n2)-c2cc(O)c(-c3nc(C(=O)NC(CNc4ccc(I)cc4)C(N)=O)cs3)nc2-c2csc(n2)[C@@H]2CSC(=O)c3[nH]c4cccc(c4c3C)COC(=O)[C@H](O)C[C@H](NC(=O)c3csc1n3)c1nc(cs1)C(=O)N2 (stereo partly drawn) | 0.062 | < 0.0039 | 0.015
12 | C/C=C1\NC(=O)[C@H]([C@@H](C)O)NC(=O)c2csc(n2)-c2cc(O)c(-c3nc(C(=O)NC(CNc4cccc(C)c4)C(N)=O)cs3)nc2-c2csc(n2)[C@@H]2CSC(=O)c3[nH]c4cccc(c4c3C)COC(=O)[C@H](O)C[C@H](NC(=O)c3csc1n3)c1nc(cs1)C(=O)N2 (stereo partly drawn) | 0.031 | < 0.0039 | 0.015
13 | C/C=C1\NC(=O)[C@H]([C@@H](C)O)NC(=O)c2csc(n2)-c2cc(O)c(-c3nc(C(=O)NC(CNc4ccccc4Br)C(N)=O)cs3)nc2-c2csc(n2)[C@@H]2CSC(=O)c3[nH]c4cccc(c4c3C)COC(=O)[C@H](O)C[C@H](NC(=O)c3csc1n3)c1nc(cs1)C(=O)N2 (stereo partly drawn) | 0.015 | < 0.0039 | 0.015
14 | C=C(NC(=O)c1csc(-c2nc3c(cc2O)-c2nc(cs2)C(=O)N[C@@H]([C@@H](C)O)C(=O)N/C(=C\C)c2nc(cs2)C(=O)N[C@H]2C[C@@H](O)C(=O)OCc4cccc5[nH]c(c(C)c45)C(=O)SC[C@H](NC(=O)c4csc2n4)c2nc-3cs2)n1)C(N)=O | 0.062 | 0.0078 | 0.031
15 | C/C=C1\NC(=O)[C@H]([C@@H](C)O)NC(=O)c2csc(n2)-c2cc(O)c(-c3nc(C(=O)NC(CNc4ccccc4I)C(N)=O)cs3)nc2-c2csc(n2)[C@@H]2CSC(=O)c3[nH]c4cccc(c4c3C)COC(=O)[C@H](O)C[C@H](NC(=O)c3csc1n3)c1nc(cs1)C(=O)N2 (stereo partly drawn) | 0.062 | 0.0078 | 0.015
16 | C/C=C1\NC(=O)[C@H]([C@@H](C)O)NC(=O)c2csc(n2)-c2cc(O)c(-c3nc(C(=O)NC(CNc4cccc(Br)c4)C(N)=O)cs3)nc2-c2csc(n2)[C@@H]2CSC(=O)c3[nH]c4cccc(c4c3C)COC(=O)[C@H](O)C[C@H](NC(=O)c3csc1n3)c1nc(cs1)C(=O)N2 (stereo partly drawn) | 0.062 | 0.0078 | 0.031
